Values quoted from earlier work as cited in publication PMC10329973 (Clinical pharmacology in drug development, 2023).

Legend:
[1] = test system: depressed individuals; conditions: study in depressed individuals; cited from earlier work
[2] = test system: blood pressure; conditions: cited from earlier work

## C[C@@H]([C@@H](O)c1ccc(O)cc1)N1CCC(O)(c2ccccc2)CC1 [CP-101,606, traxoprodil]
[1]
  dissociative effects: ketamine-like dissociative effects were noted

## Cc1ccc(COC(=O)N2CC[C@H](CNc3ncccn3)[C@H](F)C2)cc1 [MK-0657]
[2]
  off-target cardiovascular effects: increased blood pressure
